Assay results published in patent US11085081B2, “Methods and materials for determining pain sensitivity and predicting and treating related disorders” (The University of North Carolina at Chapel Hill, priority 2004, dated 2021).
“Also recorded” adds a separate entry of the source.

Legend:
Sprague-Dawley rats = assay: Mechanical and thermal pain behavior testing (von Frey monofilaments, radiant heat); type: in vivo, rat; details: for blockade of OR486-induced hyperalgesia / heightened pain sensitivity: antagonist i.p. prior to OR486; for paw withdrawal frequency to mechanical stimuli, antagonist in the absence of OR486 / paw withdrawal latency to radiant heat, antagonist in the absence of OR486 / paw withdrawal threshold to mechanical stimuli, antagonist in the absence of OR486: i.p. 10 min prior to vehicle, phentolamine 3, propranolol 3, SCH23390 0.2, spiperone 0.2, betaxolol 1.0, ICI118,551 0.5, SR59230A 5 mg/kg; for paw withdrawal frequency to mechanical stimuli, antagonist in the absence of OR486 / paw withdrawal latency to radiant heat, antagonist in the absence of OR486 / paw withdrawal threshold to mechanical stimuli, antagonist in the absence of OR486 / paw withdrawal frequency to mechanical stimuli (25 g monofilament) / paw withdrawal latency to thermal stimuli / paw withdrawal threshold to mechanical stimuli: relative to vehicle; for paw withdrawal frequency to mechanical stimuli (25 g monofilament) / paw withdrawal latency to thermal stimuli / paw withdrawal threshold to mechanical stimuli: OR486 or RO41-0960 30 mg/kg i.p., or 3% carrageenan i.pl.
Protocol: Rats were placed in plexiglass cages positioned over an elevated perforated stainless steel platform and habituated to the environment for 15-25 min prior to testing. Paw withdrawal threshold to punctate mechanical stimulation was assessed using the up-down method of Chaplan et al. (1994). A series of nine calibrated filaments (with bending forces of 0.40, 0.68, 1.1, 2.1, 3.4, 5.7, 8.4, 13.2, and 25.0 g; Sammons Preston Rolyan, Bolingbrook, Ill., U.S.A.) with approximately equal logarithmic spacing between stimuli (Mean±SEM: 0.232±0.04 units) were presented to the hind paw in successive order, whether ascending or descending. Filaments were positioned in contact with the hind paw for a duration of 3 s or until a withdrawal response occurred. Testing was initiated with the middle hair of the series (3.4 g). In the absence of a paw withdrawal response, an incrementally stronger filament was presented and in the event of a paw withdrawal, an incrementally weaker filament was presented. After the initial response threshold was crossed, this procedure was repeated four times in order to obtain a total of six responses in the immediate vicinity of the threshold. The presence of paw withdrawal (X) and absence of withdrawal (O) was noted together with the terminal filament used in the series of six responses. The 50% g threshold=(10^[Xf+kδ])/10,000, where Xf=value (in log units) of the final von Frey hair used; k=tabular value of pattern of positive (X) and negative (O) responses, and δ=mean difference (in log units) between stimuli.
Immediately following determination of the response threshold, paw withdrawal frequency (%) to punctate mechanical stimulation was assessed. A von Frey monofilament with a calibrated bending force of 25 g was presented to the hind paw 10 times for a duration of 1 s with an interstimulus interval of approximately 1 s. Mechanical hyperalgesia was defined as an increase in the percentage frequency ([# of paw withdrawals/10]×100) of paw withdrawal evoked by stimulation with von Frey monofilaments.
Thermal hyperalgesia was evaluated using the radiant heat method of Hargreaves et al. (1988) in the same animals evaluated for responsiveness to von Frey monofilaments. Radiant heat was presented through the floor of a finely perforated stainless steel platform to the midplantar region of the hind paw.
After establishing stable baseline responsiveness to mechanical and thermal stimuli, separate groups of rats received intraperitoneal injections of OR486 (30 mg/kg i.p.; N=8) or vehicle (N=8) one hour prior to behavioral testing. Responsiveness to von Frey filaments was reassessed at 30 min intervals for 2 hours. Paw withdrawal latencies to radiant heat were subsequently assessed at 2.5 hours into the testing procedure. Twenty-four hours later, baseline responsiveness to mechanical and thermal stimuli was reestablished. Animals received OR486 (30 mg/kg i.p.) or vehicle (consistent with the previous day). Thirty minutes following administration of drug or vehicle, separate groups of rats received intraplantar carrageenan (N=4 per group) or saline (N=4 per group). Responsiveness to von Frey filaments was reassessed at 30 min intervals for 2 hours following the induction of inflammation. Paw withdrawal latencies to radiant heat were subsequently assessed at 2.5 hours post carrageenan.
Rats were handled and habituated to the testing environment 2-3 days prior to establishing baseline responsiveness. On test days, rats were placed in plexiglass cages positioned over an elevated perforated stainless steel platform and habituated to the environment for 15-20 minutes prior to testing. Paw withdrawal threshold to punctate mechanical stimulation was assessed using the up-down method of Chaplan (Chaplan et al. (1994)). […]

TNFα, IL-1β, and IL-6 = assay: In vivo plasma cytokine measurement (ELISA); set-up: species or system rat; details: rats; for plasma levels of IL-1β: OR486 30 mg/kg i.p. or 3% carrageenan i.pl.; for plasma levels of IL-1β / plasma levels of IL-6 / plasma levels of TNFα: relative to vehicle; for plasma levels of IL-6 / plasma levels of TNFα: OR486 or RO41-0960 30 mg/kg i.p., or 3% carrageenan i.pl.
Protocol: Blood was centrifuged and plasma separated from red blood cells. Plasma IL-6 was measured in duplicate using enzyme-linked immunosorbant assay (ELISA) kits from R&D systems (Minneapolis, Minn., U.S.A.). Plasma TNFα and IL-1β were measured in duplicate by the University of North Carolina Proteomics Ilmmunotechnologies Core using ELISA kits from Biosource (Camarillo, Calif., U.S.A.) and the National Institute for Biological Standards and Control (UK), respectively.

3T3-L1 adipocytes = assay: In vitro cytokine measurement (real time PCR of transcripts) in adipocytes; type: cell-based, mouse; details: salmeterol 0.5 μM or CL316243 0.3 μM, 1 hr treatment; normalized to GAPDH
Protocol: Cell growth media consisted of Dulbecco's modified Eagle's medium supplemented with 10% heat-inactivated fetal bovine serum (Sigma, St. Louis, Mo., U.S.A.) and 1× penicillin-streptomycin (Gibco, Carlsbad, Calif., U.S.A.). Cells were maintained in a humidified atmosphere of 95% air and 5% CO2.
Two days after reaching confluence in growth media, adipogenesis was induced by incubating cells in growth media containing 0.25 μM dexamethasone (Sigma), 0.5 mM IBMX (Sigma), and 1 μM insulin (Sigma). After an additional 2 days in growth media containing 1 μM insulin, cells were grown for 6-8 days in normal growth media.
Total RNA was isolated using the RNeasy Mini Kit (Qiagen, Valencia, Calif., U.S.A.). RNA was then treated with 2 units of DNase I (Ambion, Austin, Tex., U.S.A.) at 37° C. for 30 min. Reverse transcription was performed according to the manufacturer's instructions. Briefly, the reverse transcription reaction mixture consisted of 1 μg DNase 1-treated RNA, 500 ng oligo-dT12-18, 10 mM dNTP, 40 units RNasin (Promega, Madison, Wis., U.S.A.), and 200 units of reverse transcriptase SUPERSCRIPT III™ (Invitrogen, Carlsbad, Calif., U.S.A.). cDNA synthesis was carried out at 50° C. for 1 hr followed by inactivation of reverse transcriptase at 70° C. for 15 min.
Mouse macrophages (RAW 264.7) and […] preadipocytes (3T3-L1) were obtained from the University of North Carolina Tissue Culture Facility. Cell maintenance and 3T3-L1 preadipocyte differentiation is described herein below. For pharmacological experiments, cells were seeded at a density of 5×10^5 cells/well in a 12-well plate (Corning). Total RNA was isolated and reverse transcribed as described in the supplementary materials. TNFα, IL-1β, and IL-6 transcripts were quantitated in quadruplicate by real time polymerase chain reaction using TAQMAN® Gene Expression Assays (Applied Biosystems, Foster City, Calif., U.S.A.) in an ABI PRISM 7000 Sequence Detection System. TNFα, IL-1β, and IL-6 transcript levels were normalized to Glyceraldehyde-3-phosphate dehydrogenase (GAPDH).

[1] = propranolol 3 mg/kg i.p. 10 minutes prior to OR486, relative to vehicle, phentolamine, SCH23390 or spiperone prior to OR486
[2] = propranolol 3 mg/kg i.p. prior to OR486, relative to vehicle prior to OR486
[3] = i.p. 10 min prior to OR486, ICI118,551 0.5 or 5.0 mg/kg, SR59230A 5 or 50 mg/kg, betaxolol 0.1, 1.0, 10 mg/kg, relative to vehicle prior to OR486
[4] = OR486 30 mg/kg i.p., relative to vehicle or carrageenan in the contralateral non-inflamed paw

Compound | blockade of OR486-induced hyperalgesia / heightened pain sensitivity (Sprague-Dawley rats) | paw withdrawal frequency to mechanical stimuli, antagonist in the absence of OR486 (Sprague-Dawley rats) | paw withdrawal latency to radiant heat, antagonist in the absence of OR486 (Sprague-Dawley rats) | paw withdrawal threshold to mechanical stimuli, antagonist in the absence of OR486 (Sprague-Dawley rats) | paw withdrawal frequency to mechanical stimuli (25 g monofilament) (Sprague-Dawley rats) | paw withdrawal latency to thermal stimuli (Sprague-Dawley rats) | paw withdrawal threshold to mechanical stimuli (Sprague-Dawley rats) | plasma levels of IL-6 (TNFα, IL-1β, and IL-6) | plasma levels of TNFα (TNFα, IL-1β, and IL-6) | also measured
CC(C)NCC(O)COc1cccc2ccccc12 (stereo not shown) [propranolol] | completely blocks | failed to affect | failed to affect | failed to affect |  |  |  |  |  | paw withdrawal frequency to mechanical stimuli after OR486 (Sprague-Dawley rats; [1]): normalized; paw withdrawal latency to radiant heat after OR486 (Sprague-Dawley rats; [1]): normalized; paw withdrawal threshold to mechanical stimuli after OR486 (Sprague-Dawley rats; [1]): normalized; plasma levels of IL-1β after OR486 (TNFα, IL-1β, and IL-6; [2]): normalized plasma levels; also recorded: decreased plasma levels; plasma levels of IL-6 after OR486 (TNFα, IL-1β, and IL-6; [2]): normalized plasma levels; also recorded: decreased plasma levels; plasma levels of TNFα after OR486 (TNFα, IL-1β, and IL-6; [2]): normalized plasma levels; also recorded: decreased plasma levels
CC(C)NCC(O)COc1ccc(CCOCC2CC2)cc1 (stereo not shown) [betaxolol] |  | failed to affect | failed to affect | failed to affect |  |  |  |  |  | paw withdrawal latency to radiant heat after OR486, selective βAR antagonists (Sprague-Dawley rats; i.p. 10 min prior to OR486, ICI118,551 5.0 mg/kg, SR59230A 5 or 50 mg/kg, betaxolol 0.1, 1.0, 10 mg/kg, relative to vehicle prior to OR486): failed to alter; paw withdrawal frequency to mechanical stimuli after OR486, selective βAR antagonists (Sprague-Dawley rats; [3]): failed to alter; paw withdrawal threshold to mechanical stimuli after OR486, selective βAR antagonists (Sprague-Dawley rats; [3]): failed to alter
O=[N+]([O-])c1cc(O)c(O)c([N+](=O)[O-])c1 [OR486] |  |  |  |  | increased paw withdrawal frequency | decreased paw withdrawal thresholds; also recorded: decreased paw withdrawal latency | significantly decreased paw withdrawal threshold | elevated plasma levels | elevated plasma levels | degree of mechanical and thermal hyperalgesia (Sprague-Dawley rats; OR486 30 mg/kg i.p. compared with carrageenan-induced inflammation of the hindpaw): comparable to that produced by carrageenan-induced inflammation; paw withdrawal frequency to 25 g monofilament, non-inflamed paw (Sprague-Dawley rats; [4]): increased paw withdrawal frequency; paw withdrawal latency to thermal stimuli, non-inflamed paw (Sprague-Dawley rats; [4]): decreased paw withdrawal latency; paw withdrawal threshold to mechanical stimuli, non-inflamed paw (Sprague-Dawley rats; [4]): decreased paw withdrawal threshold; plasma levels of IL-1β (TNFα, IL-1β, and IL-6; 30 mg/kg): elevated plasma levels
C[C@H](Cc1ccc2c(c1)OC(C(=O)[O-])(C(=O)[O-])O2)NC[C@H](O)c1cccc(Cl)c1.[Na+].[Na+] [CL316243, disodium (R,R)-5-(2-[{2-(3-chlorophenyl)-2-hydroxyethyl}-amino]propyl)-1,3-benzodioxole-2,2, dicarboxylate] |  |  |  |  |  |  |  |  |  | increase in IL-6 mRNA levels in adipocytes (3T3-L1 adipocytes): 28 fold
O=C(c1cc(O)c(O)c([N+](=O)[O-])c1)c1ccccc1F [RO41-0960] |  |  |  |  | increased paw withdrawal frequency | decreased paw withdrawal latency | decreased paw withdrawal threshold | a trend towards elevated levels | elevated plasma levels | mechanical and thermal pain sensitivity (Sprague-Dawley rats; RO41-0960 30 mg/kg i.p.): decreased mechanical and thermal pain sensitivity; plasma proinflammatory cytokine production (TNFα, IL-1β, and IL-6; RO41-0960 30 mg/kg i.p. vs vehicle, 30 mg/kg): increased cytokine production; also recorded: increases plasma proinflammatory cytokine levels; increase in plasma levels of IL-1β (TNFα, IL-1β, and IL-6; RO41-0960 30 mg/kg i.p. vs vehicle, no statistical analysis (sample loss)): 4.5 fold
Cc1ccc(N(CC2=NCCN2)c2cccc(O)c2)cc1 [phentolamine] | failed to block | failed to affect | failed to affect | failed to affect |  |  |  |  |  | 
O=C(CCCN1CCC2(CC1)C(=O)NCN2c1ccccc1)c1ccc(F)cc1 [spiperone] | failed to block | failed to affect | failed to affect | failed to affect |  |  |  |  |  | 
carrageenan |  |  |  |  | increased paw withdrawal frequency | decreased paw withdrawal latency | decreased paw withdrawal threshold | elevated levels | elevated levels | plasma levels of IL-1β (TNFα, IL-1β, and IL-6): elevated levels
